Measured values: patent US20130040978A1 (priority 2010, published 2013)
Structures can show the parent of a compound that is named as a salt.

Assays:
SSTR5 [1] = molecular target: T1, SSTR5 (Homo sapiens, UniProt P35346); assay: SSTR5 receptor-ligand binding assay, CHO-K1 cell membranes, 125I-SRIF radioligand; design: expressed in transfected cells; details: Table 4, read-out: Bnd IC50
Description: The receptor-ligand binding assays of all 5 subtype of SSTRs were performed with membranes isolated from Chinese hamster ovary (CHO)-K1 cells stably expressing the cloned human somatostatin receptors in 96-well format as previous reported. (Yang et al. PNAS 95:10836-10841, (1998), Birzin et al. Anal. Biochem. 307:159-166, (2002)).
The stable cell lines for SSTR1-SSTR5 were developed by stably transfecting with DNA for all five SSTRs using Lipofectamine. Neomycin-resistant clones were selected and maintained in medium containing 400 μg/mL G418 (Rohrer et al. Science 282:737-740, (1998)). Binding assays were performed using (3-125I-Tyr11)-SRIF-14 or (3-125I-Tyrl 1)-SRIF-28 as the radioligand (used at 0.1 nM) and The Packard Unifilter assay plate. The assay buffer consisted of 50 mM TrisHCl (pH 7.8) with 1 mM EGTA, 5 mM MgCl2, leupeptin (10 μg/mL), pepstatin (10 μg/mL), bacitracin (200 μg/mL), and aprotinin (0.5 μg/mL). CHO-K1 cell membranes, radiolabeled somatostatin, and unlabeled test compounds were resuspended or diluted in this assay buffer. Unlabeled test compounds were examined over a range of concentrations from 0.01 nM to 10,000 nM. The Ki values for compounds were determined as described by Cheng and Prusoff Biochem Pharmacol. 22:3099-3108 (1973).

SSTR5 [2] = molecular target: T1, SSTR5; assay: Functional assay of inhibition of SSTR5 mediated cyclic AMP production in SSTR5 expressing CHO cells; assay type: cell-based, human; details: forskolin (FSK) plus SS-28, read-out: cAMP IC50

T1 sequence (P35346 whole entry): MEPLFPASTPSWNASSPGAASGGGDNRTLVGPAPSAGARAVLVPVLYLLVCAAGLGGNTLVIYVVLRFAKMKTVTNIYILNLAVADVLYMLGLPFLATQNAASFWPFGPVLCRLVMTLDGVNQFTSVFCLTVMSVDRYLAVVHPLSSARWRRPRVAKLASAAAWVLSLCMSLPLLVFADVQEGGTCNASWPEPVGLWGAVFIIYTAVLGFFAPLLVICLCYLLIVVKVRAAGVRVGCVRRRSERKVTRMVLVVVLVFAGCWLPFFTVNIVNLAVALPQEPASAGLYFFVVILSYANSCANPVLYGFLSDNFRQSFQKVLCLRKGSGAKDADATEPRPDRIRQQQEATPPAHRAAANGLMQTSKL

Compound | IC50 (SSTR5 [1]) [nM] | IC50 (SSTR5 [2]) [nM]
4-{8-[(4,4-Dimethyl-3,4-dihydro-2-H-chromen-6-yl)methyl]-1-oxa-2,8-diazaspiro[4.5]dec-2-en-3-yl}benzoic acid, TFA salt [Example 2] | 4.3 | 5.2
CC(C)(C)n1cc(CN2CCC3(CC2)CC(c2ccc(C(=O)O)cc2)=NO3)c(-c2ccc(F)c(F)c2F)n1 [Example 3, 4-(8-{[1-tert-Butyl-3-(2,3,4-trifluorophenyl)-1H-pyrazol-4-yl]methyl})-1-oxa-2,8-diazaspiro[4.5]dec-2-en-3-yl)benzoic acid, TFA salt] | 2.8 | 8.2
CCOc1ccc(-c2ccc(F)cc2F)c(CN2CCC3(CC2)CC(c2ccc(C(=O)O)cc2)=NO3)c1 [Example 4, 4-{8-[(4-Ethoxy-2′,4′-difluorobiphenyl-2-yl)methyl]-1-oxa-2,8-diazaspiro[4.5]dec-2-en-3-yl}benzoic acid] | 2.9 | 3
CCOc1ccc(-c2cc(F)c(F)cc2F)c(CN2CCC3(CC2)CC(c2ccc(C(=O)O)cc2)=NO3)c1 [Example 10, 4-{8-[(4-Ethoxy-2′,4′,5′-trifluorobiphenyl-2-yl)methyl]-1-oxa-2,8-diazaspiro[4.5]dec-2-en-3-yl}benzoic acid] | 1.8 | 5.7
CC(C)n1cc(CN2CCC3(CC2)CC(c2ccc(C(=O)O)cc2)=NO3)c2c(-c3ccc(F)cc3)cccc21 [Example 39, 4-(8-{[4-(4-Fluorophenyl)-1-(propan-2-yl)-1H-indol-3-yl]methyl}-1-oxa-2,8-diazaspiro[4.5]dec-2-en-3-yl)benzoic acid, TFA salt] | – | 0.18
CC(C)n1cc(CN2CCC3(CC2)CC(c2ccc(C(=O)O)cc2)=NO3)c2c(-c3ccc(F)cc3)ccnc21 [Example 43, 4-(8-{[4-(4-Fluorophenyl)-1-(propan-2-yl)-1H-pyrrolo[2,3-b]pyridin-3-yl]methyl}-1-oxa-2,8-diazaspiro[4.5]dec-2-en-3-yl)benzoic acid, TFA salt] | – | 2.5
Cc1cccc2c(CN3CCC4(CC3)CC(c3ccc(C(=O)O)cc3)=NO4)cn(C(C)C)c12 [Example 44, 4-(8-{[7-Methyl-1-(propan-2-yl)-1H-indol-3-yl]methyl}-1-oxa-2,8-diazaspiro[4.5]dec-2-en-3-yl)benzoic acid, TFA salt] | – | 14.4
CC(C)n1cc(CN2CCC3(CC2)CC(c2ccc(C(=O)O)cc2)=NO3)c2c(F)c(F)c(F)c(F)c21 [Example 46, 4-(8-{[1-(propan-2-yl)-4,5,6,7-(tetrafluoro)-1H-indol-3-yl]methyl}-1-oxa-2,8-diazaspiro[4.5]dec-2-en-3-yl)benzoic acid, TFA salt] | – | 12.1
O=C(O)c1ccc(C2=NOC3(CCN(Cc4cn(C5CC5)c5c(C6CC6)cccc45)CC3)C2)cc1 [Example 50, 4-(8-{[1,7-(Dicyclopropyl)-1H-indol-3-yl]methyl}-1-oxa-2,8-diazaspiro[4.5]dec-2-en-3-yl)benzoic acid, TFA salt] | – | 13.5
O=C(O)c1ccc(C2=NOC3(CCN(Cc4ccc(Cl)c(Br)c4)CC3)C2)cc1 [Example 70, 4-[8-(3-Bromo-4-chlorobenzyl)-1-oxa-2,8-diazaspiro[4.5]dec-2-en-3-yl]benzoic acid] | – | 26.5
CC1(C)CCOc2c(Cl)cc(CN3CCC4(CC3)CC(c3ccc(C(=O)O)cc3)=NO4)cc21 [Example 87, 4-{8-[(8-Chloro-4,4-dimethyl-3,4-dihydro-2H-chromen-6-yl)methyl]-1-oxa-2,8-diazaspiro[4.5]dec-2-en-3-yl}benzoic acid trifluoroacetate] | – | 1.5
CC1(C)CC2(CC2)c2cc(CN3CCC4(CC3)CC(c3ccc(C(=O)O)cc3)=NO4)cc(Cl)c2O1 [Example 96, 4-{8-[(8-Chloro-2,2-dimethyl-2,3-dihydrospiro[chromene-4,1′-cyclopropan]-6-yl)methyl]-1-oxa-2,8-diazaspiro[4.5]dec-2-en-3-yl}benzoic acid, TFA salt] | – | 9.4
CC1(C)CCS(=O)(=O)c2c(Cl)cc(CN3CCC4(CC3)CC(c3ccc(C(=O)O)cc3)=NO4)cc21 [Example 99, 4-{8-[(8-Chloro-4,4-dimethyl-1,1-dioxido-3,4-dihydro-2H-thiochromen-6-yl)methyl]-1-oxa-2,8-diazaspiro[4.5]dec-2-en-3-yl}benzoic acid, TFA salt] | – | 472

Second part, the compound after the results:

IC50 (SSTR5 [1]) [nM] | IC50 (SSTR5 [2]) [nM] | Compound
1.2 | 0.72 | CCOc1cc(CN2CCC3(CC2)CC(c2ccc(C(=O)O)cc2)=NO3)cc(OCC)c1-c1ccc(F)cc1 [Example 1, 4-{8-[(2,6-Diethoxy-4′-fluorobiphenyl-4-yl)methyl]-1-oxa-2,8-diazaspiro[4.5]dec-2-en-3-yl}benzoic acid, TFA salt]
6 | 2.4 | CCOc1cc(CN2CCC3(CC2)CC(c2ccc(C(=O)O)cc2)=NO3)cc(OCC)c1OCC(F)(F)F [Example 5, 4-{8-[3,5-Diethoxy-4-(2,2,2-trifluoroethoxy)benzyl]-1-oxa-2,8-diazaspiro[4.5]dec-2-en-3-yl}benzoic acid]
– | 0.4 | CC(C)n1cc(CN2CCC3(CC2)CC(c2ccc(C(=O)O)cc2)=NO3)c2c(-c3ccc(F)nc3)cccc21 [Example 40, 4-(8-{[4-(6-Fluoropyridin-3-yl)-1-(propan-2-yl)-1H-indol-3-yl]methyl}-1-oxa-2,8-diazaspiro[4.5]dec-2-en-3-yl)benzoic acid, TFA salt]
– | 0.3 | CC(C)n1cc(CN2CCC3(CC2)CC(c2ccc(C(=O)O)cc2)=NO3)c2c(-c3cc(F)c(F)cc3F)cccc21 [Example 41, 4-(8-{[4-(2,4,5-Trifluorophenyl)-1-(propan-2-yl)-1H-indol-3-yl]methyl}-1-oxa-2,8-diazaspiro[4.5]dec-2-en-3-yl)benzoic acid, TFA salt]
– | 9.15 | Cc1cccc2c(CN3CCC4(CC3)CC(c3ccc(C(=O)O)cc3)=NO4)cn(C3CC3)c12 [Example 45, 4-(8-{[7-Methyl-1-(cyclopropyl)-1H-indol-3-yl]methyl}-1-oxa-2,8-diazaspiro[4.5]dec-2-en-3-yl)benzoic acid, TFA salt]
– | 0.28 | CC(C)n1cc(CN2CCC3(CC2)CC(c2ccc(C(=O)O)cc2)=NO3)c2c(C3CC3)cccc21 [Example 47, 4-(8-{[4-(Cyclopropyl)-1-(propan-2-yl)-1H-indol-3-yl]methyl}-1-oxa-2,8-diazaspiro[4.5]dec-2-en-3-yl)benzoic acid, TFA salt]
– | 3.36 | CC(C)n1cc(CN2CCC3(CC2)CC(c2ccc(C(=O)O)cc2)=NO3)c2cccc(C3CC3)c21 [Example 48, 4-(8-{[7-(Cyclopropyl)-1-(propan-2-yl)-1H-indol-3-yl]methyl}-1-oxa-2,8-diazaspiro[4.5]dec-2-en-3-yl)benzoic acid, TFA salt]
– | 2.5 | O=C(O)c1ccc(C2=NOC3(CCN(Cc4cn(C5CC5)c5ccc(C6CC6)cc45)CC3)C2)cc1 [Example 49, 4-(8-{[1,5-(Dicyclopropyl)-1H-indol-3-yl]methyl}-1-oxa-2,8-diazaspiro[4.5]dec-2-en-3-yl)benzoic acid, TFA salt]
– | 8.32 | CC(C)n1cc(CN2CCC3(CC2)CC(c2ccc(C(=O)O)cc2)=NO3)c2cc(F)ccc21 [Example 51, 4-(8-{[5-Fluoro-1-(propan-2-yl)-1H-indol-3-yl]methyl}-1-oxa-2,8-diazaspiro[4.5]dec-2-en-3-yl)benzoic acid, TFA salt]
– | 13.2 | Cc1cc(-c2cccnc2)c(CN2CCC3(CC2)CC(c2ccc(C(=O)O)cc2)=NO3)cc1C(F)(F)F [Example 68]
– | 2.25 | O=C(O)c1ccc(C2=NOC3(CCN(Cc4cc(Cl)cc(C5CC5)c4)CC3)C2)cc1 [Example 85, 4-[8-(3-Chloro-5-cyclopropylbenzyl)-1-oxa-2,8-diazaspiro[4.5]dec-2-en-3-yl]benzoic acid, TFA salt]
– | 72.7 | Cc1cc(CN2CCC3(CC2)CC(c2ccc(C(=O)O)cc2)=NO3)cc2c1OC(C)(C)CC2 [Example 91, 4-{8-[(2,2,8-Trimethyl-3,4-dihydro-2H-chromen-6-yl)methyl]-1-oxa-2,8-diazaspiro[4.5]dec-2-en-3-yl}benzoic acid, TFA salt]
– | 18.7 | CC1(C)CC2(CC2)c2cc(CN3CCC4(CC3)CC(c3ccc(C(=O)O)cc3)=NO4)ccc2O1 [Example 95, 4-{8-[(2,2-Dimethyl-2,3-dihydrospiro[chromene-4,1′-cyclopropan]-6-yl)methyl]-1-oxa-2,8-diazaspiro[4.5]dec-2-en-3-yl}benzoic acid, TFA salt]
– | 4.05 | CC1(C)CC2(CC2)c2cc(CN3CCC4(CC3)CC(c3ccc(C(=O)O)cc3)=NO4)cc(C3CC3)c2O1 [Example 97, 4-{8-[(8-Cyclopropyl-2,2-dimethyl-2,3-dihydrospiro[chromene-4,1′-cyclopropan]-6-yl)methyl]-1-oxa-2,8-diazaspiro[4.5]dec-2-en-3-yl}benzoic acid, TFA salt]
– | 12.6 | CC1(C)CCSc2c(C3CC3)cc(CN3CCC4(CC3)CC(c3ccc(C(=O)O)cc3)=NO4)cc21 [Example 98, 4-{8-[(8-Cyclopropyl-4,4-dimethyl-3,4-dihydro-2H-thiochromen-6-yl)methyl]-1-oxa-2,8-diazaspiro[4.5]dec-2-en-3-yl}benzoic acid, TFA salt]
